Test results as given in patent publication US20230057133A1, “COMPOUND FOR THE TREATMENT AND PREVENTION OF CENTRAL NERVOUS SYSTEM DISORDERS” (ABAXYS THERAPEUTICS, priority 2019, published 2023).

Tests used:
Assay type in all cases: in vivo, zebrafish
zebra fish larvae [1] = assay: Model of epileptic activity: pentetrazole-induced locomotor activity of zebra fish larvae
Procedure: (§1) Compound was tested in zebrafish paradigms reaction to environmental stimuli, epileptic activity and dopaminergic hyperactivity. Zebrafish used in present studies were raised in regular conditions of housing in tanks of appropriate size and circadian rhythm (12:12 photoperiod, light/darkness). The aqueous medium used for the maintenance and experimental conditions was Instant Ocean®. The water maintained between at 27° C. or 29° C., pH between 7.2-7.5 and a conductivity value between 480-520 μS. Zebrafish embryos were placed in sterile petri dishes before being transferred to plates after the hatching.
(§2) For experimental studies, larvae of up to 5 dpf were placed in flat bottom 96-well plates. At the treatment time, the medium was replaced by 150 μL fresh medium. Pentetrazole (PTZ) and/or Cmpd1 (treatment), or vehicle (control) were added (up to 210-240 μL) to the wells followed by video recording.
(§3) Locomotion of larvae was recorded using Noldus daniovisio system equipped with infrared light detection. Ethovision XT15 software controlled the temperature of plate (28° C.) and chamber light conditions. The experimental recording was done with a cycle of light period (20 min) followed by dark period (45 min). After recording data were analysed using Ethovision XT15 software package. The distance moved by larvae was calculated for each period of 2 min recording (FIGS. 1 to 6 and 10) or as accumulated value of distance at 2 min (initiation), at 4 min at 10 min and at 20 min (switch to darkness) or at 60 min (end of recording) (FIGS. 7 and 8).
(§4) All compounds were dissolved in medium or medium containing DMSO at indicated concentrations.

zebra fish larvae [2] = assay: Model of hyperdopaminergic activity: apomorphine-induced locomotor activity of zebra fish larvae
Procedure: as §1, §2, §3, §4
The same methods as disclosed in Example 1 ware carried out for Example 2, except that the pentetrazole was replaced by apomorphine (APO).

zebra fish larvae [3] = assay: Locomotion of zebra fish larvae treated with compound alone, light period followed by dark period; conditions: Cmpd1 100 μM alone versus vehicle; FIGS. 5 and 10
Procedure: as §1, §2
as §3, with “Ethovision XT15 software controlled the temperature of plate (28° C.) and chamber light conditions. The experimental recording was done with a cycle of light period (20 min) followed by dark period (45 min).” left out, “8). […]” for “8).”

CCOC(=O)C1CCN(C(=O)[C@H](C)N(c2ccc(C)cc2)S(C)(=O)=O)CC1 [Cmpd1, ethyl 1-(N-(methylsulfonyl)-N-(p-tolyl)alanyl)piperidine-4-carboxylate]
locomotion level compared with vehicle treated zebra fishes (zebra fish larvae [1]; Cmpd1 100 μM, FIG. 2 open circles and FIG. 7): stabilizes locomotion to levels close to normal locomotion | locomotor activity induced by pentetrazole alone (distance moved) (zebra fish larvae [1]; co-treatment Cmpd1 100 μM + pentetrazole 10 mM, FIG. 2 and FIG. 7): decrease of the locomotor activity | conclusion of the epileptic activity model (zebra fish larvae [1]; pentetrazole model, Cmpd1 100 μM): anti-epileptic activity | locomotion level compared with vehicle treated zebra fish (zebra fish larvae [2]; FIG. 5 and FIGS. 9 and 10): stabilizes locomotion to levels close to normal locomotion | conclusion of the hyperdopaminergic activity model (zebra fish larvae [2]; apomorphine model): stabilizer of the hyperdopaminergic activity | locomotor activity induced by apomorphine alone (distance moved) (zebra fish larvae [2]; co-treatment Cmpd1 100 μM + apomorphine 55 μM, FIG. 9): decrease of the locomotor activity | locomotor activity induced by apomorphine alone (distance moved) (zebra fish larvae [2]; co-treatment Cmpd1 100 μM + apomorphine 75 μM, FIG. 4): decrease of the locomotor activity | apomorphine-induced locomotion activity, time course (zebra fish larvae [2]; first period of the assay, up to ~20 min, FIG. 9): reduces apomorphine-induced locomotion activity strongly | locomotion activity and peak due to change to dark condition (zebra fish larvae [3]): maintains a low level of locomotion activity suppressing also the peak due to change to dark condition

CN1CCc2cccc3c2[C@H]1Cc1ccc(O)c(O)c1-3 [apomorphine, reference compound]
locomotor activity (distance moved) versus vehicle (zebra fish larvae [2]; apomorphine alone, 75 μM (FIG. 3) or 55 μM (FIG. 8), light conditions): clear increase of locomotor activity in light conditions

C1CCc2nnnn2CC1 [pentetrazole, reference compound]
locomotor activity (distance moved) versus vehicle (zebra fish larvae [1]; pentetrazole 10 mM alone, larvae up to 5 dpf, light 20 min then dark 45 min, FIGS. 1, 2, 6): clear increase of locomotor activity in both light and dark conditions
